Results as given in patent publication US10646469B2, “Substituted indole derivatives as dengue viral replication inhibitors” (Janssen Pharmaceuticals, Inc., priority 2016, dated 2020).

Assays:
[1] = test system: DENV-1 strain TC974 #666; test: Tetravalent RT-qPCR assay, serotype 1; type: cell-based; settings: Dengue virus, DENV1, 72 h; RT-qPCR serotype 1 TC974#666, Protocol A, Vero cells, day 3
Procedure: (§1) The antiviral activity of the compounds of the invention was tested against DENV-1 strain TC974 #666 (NCPV), DENV-2 strain 16681, DENV-3 strain H87 (NCPV) and DENV-4 strain H241 (NCPV) in a RT-qPCR assay. Therefore, Vero cells were infected with either DENV-1, or -2, or -3, or -4 in the presence or absence of test compounds. At day 3 post-infection, the cells were lysed and cell lysates were used to prepare cDNA of both a viral target (the 3′UTR of DENV; Table 2) and cellular reference gene (β-actin, Table 2). Subsequently, a duplex real time PCR was performed on a Lightcycler480 instrument. The generated Cp value is inversely proportional to the amount of RNA expression of these targets. Inhibition of DENV replication by a test compound results in a shift of Cp's for the 3′UTR gene. On the other hand, if a test compound is toxic to the cells, a similar effect on β-actin expression will be observed. The comparative ΔΔCp method is used to calculate EC50, which is based on the relative gene expression of the target gene (3′UTR) normalized with the cellular housekeeping gene (β-actin). In addition, CC50 values are determined based on the Cp values acquired for the housekeeping gene β-actin.
(§2) The culture medium consisted of minimal essential medium supplemented with 2% of heat-inactivated fetal calf serum, 0.04% gentamycin (50 mg/mL) and 2 mM of L-glutamine. Vero cells, obtained from ECACC, were suspended in culture medium and 75 μL/well was added in 96-well plates (10000 cells/well), which already contain the antiviral compounds. […] In addition, each plate contains wells which are assigned as virus controls (containing cells and virus in the absence of compound) and cell controls (containing cells in the absence of virus and compound). Once the cells were added in the plates, the plates were incubated in a fully humidified incubator (37° C., 5% CO2) until the next day. Dengue viruses serotype-1, 2, 3 and 4 were diluted in order to obtain a Cp of ˜22-24 in the assay. Therefore, 25 μL of virus suspension was added to all the wells containing test compound and to the wells assigned as virus control. In parallel, 25 μL of culture medium was added to the cell controls. Next, the plates were incubated for 3 days in a fully humidified incubator (37° C., 5% CO2). After 3 days, the supernatant was removed from the wells and the cells were washed twice with ice-cold PBS (˜100 μL). The cell pellets within the 96-well plates were stored at −80° C. for at least 1 day. Next, RNA was extracted using the Cells-to-CT™ lysis kit, according to the manufacturer's guideline (Life Technologies). The cell lysates can be stored at −80° C. or immediately used in the reverse transcription step.
(§3) In preparation of the reverse transcription step, mix A (table 3A) was prepared and 7.57 μL/well was dispensed in a 96-well plate. After addition of 5 μL of the cell lysates, a five minute denaturation step at 75° C. was performed (table 3B). Afterwards, 7.43 μL of mix B was added (table 3C) and the reverse transcription step was initiated (table 3D) to generate cDNA.
(§4) Finally, a RT-qPCR mix was prepared, mix C (table 4A), and 22.02 μL/well was dispensed in 96-well LightCycler qPCR plates to which 3 μL of cDNA was added and the qPCR was performed according to the conditions in table 4B on a LightCycler 480.
(§5) Using the LightCycler software and an in-house LIMS system, dose response curves for each compound were calculated and the half maximal effective concentration (EC50) and the half maximal cytotoxic concentration (CC50) were determined (Tables 5-8).

[2] = Cytotoxicity in RT-qPCR assay (Cp of housekeeping gene β-actin); type: cell-based; settings: African green monkey
Procedure: as §1, §2, §5

[3] = test system: DENV-2 strain 16681; test: Tetravalent RT-qPCR assay, serotype 2; type: cell-based; settings: Dengue virus, DENV2, 72 h; RT-qPCR serotype 2 16681, Protocol A, Vero cells, day 3
Procedure: as §1, §2, §3, §4, §5

[4] = test system: Vero cells; test: Toxicity on the same plates (ATPlite cell viability); settings: Vero cells, same plates as DENV-2 antiviral assay
[5] = test system: DENV-2 16681 strain; test: DENV-2 antiviral assay (eGFP-labeled virus in Vero cells); type: cell-based, Dengue virus; settings: DENV-2 16681 eGFP, MOI 0.5, 3 days
Procedure: The antiviral activity of all the compounds of the invention was tested against the DENV-2 16681 strain which was labeled with enhanced green fluorescent protein (eGPF). The culture medium consists of minimal essential medium supplemented with 2% of heat-inactivated fetal calf serum, 0.04% gentamycin (50 mg/mL) and 2 mM of L-glutamine. Vero cells, obtained from ECACC, were suspended in culture medium and 25 μL was added to 384-well plates (2500 cells/well), which already contain the antiviral compounds. Typically, these plates contain a 5-fold serial dilution of 9 dilution steps of the test compound at 200 times the final concentration in 100% DMSO (200 nL). […] Finally, each plate contains wells which are assigned as virus controls (containing cells and virus in the absence of compound), cell controls (containing cells in the absence of virus and compound) and medium controls (containing medium in the absence of cells, virus and compounds). To the wells assigned as medium control, 25 μL of culture medium was added instead of Vero cells. Once the cells were added to the plates, the plates were incubated for 30 minutes at room temperature to allow the cells to distribute evenly within the wells. Next, the plates were incubated in a fully humidified incubator (37° C., 5% CO2) until the next day. Then, DENV-2 strain 16681, labeled with eGFP, was added at a multiplicity of infection (MOI) of 0.5. Therefore, 15 μL of virus suspension was added to all the wells containing test compound and to the wells assigned as virus control. In parallel, 15 μL of culture medium was added to the medium and cell controls. Next, the plates were incubated for 3 days in a fully humidified incubator (37° C., 5% CO2). At the day of the read out, the eGFP fluorescence was measured using an automated fluorescence microscope at 488 nm (blue laser). Using an in-house LIMS system, inhibition dose response curves for each compound were calculated and the half maximal effective concentration (EC50) was determined. Therefore, the percent inhibition (I) for every test concentration is calculated using the following formula: I=100*([…])/(SVC−SCC); ST, SCC and SVC are the amount of eGFP signal in the test compound, cell control and virus control wells, respectively. The EC50 represents the concentration of a compound at which the virus replication is inhibited with 50%, as measured by a 50% reduction of the eGFP fluorescent intensity compared to the virus control. The EC50 is calculated using linear interpolation (Table 1).

[6] = test system: DENV-4 strain H241; test: Tetravalent RT-qPCR assay, serotype 4; type: cell-based; settings: Dengue virus, DENV4, 72 h; RT-qPCR serotype 4 H241, Protocol A, Vero cells, day 3
Procedure: as §1, §2, §3, §4, §5

[7] = test system: DENV-3 strain H87; test: Tetravalent RT-qPCR assay, serotype 3; type: cell-based; settings: Dengue virus, DENV3, 72 h; RT-qPCR serotype 3 H87, Protocol A, Vero cells, day 3
Procedure: as §1, §2, §3, §4, §5

[8] = Toxicity on the same plates (ATPlite cell viability); settings: African green monkey, CC50, Vero cells, same plates as DENV-2 antiviral assay
[9] = RT-qPCR serotype 1 TC974#666, Protocol A
[10] = RT-qPCR serotype 2 16681, Protocol A
[11] = RT-qPCR serotype 3 H87, Protocol A
[12] = RT-qPCR serotype 4 H241, Protocol A

SMILES	EC50 [1] [nM]	CC50 at 3 days [2, 9] [nM]	CC50 at 3 days [2, 10] [nM]	CC50 at 3 days [2, 11] [nM]	CC50 at 3 days [2, 12] [nM]	EC50 [3] [nM]	CC50 [4] [nM]	EC50 [5] [nM]	EC50 [6] [nM]	EC50 [7] [nM]	CC50 [8] [nM]
COc1cc(NC(C(=O)c2c[nH]c3cc(OC)c(OC(F)(F)F)cc23)c2ccc(F)cc2OC)cc(OCCO)c1 (single isomer, unassigned) [Compound 6A, 2-(4-fluoro-2-methoxyphenyl)-2-((3-(2-hydroxyethoxy)-5-methoxyphenyl)amino)-1-(6-methoxy-5-(trifluoromethoxy)-1H-indol-3-yl)ethanone]	2.6	> 2100	3900	> 2500	1500	0.55	> 2500	0.33	78	12	
COc1cc(NC(C(=O)c2c[nH]c3cc(F)c(OC(F)(F)F)cc23)c2ccc(F)cc2OC)cc(OCCO)c1 (single isomer, unassigned) [Compound 7B, 2-(4-fluoro-2-methoxyphenyl)-1-(6-fluoro-5-(trifluoromethoxy)-1H-indol-3-yl)-2-((3-(2-hydroxyethoxy)-5-methoxyphenyl)amino)ethanone]	1.2	> 2500	> 2500	> 2500	2100	0.55	2400	0.53	52	8.2	
COc1cc(NC(C(=O)c2c[nH]c3ccc(C(F)(F)F)cc23)c2ccc(Cl)cc2OC)cc(OCCO)c1 (single isomer, unassigned) [Compound 9A, 2-(4-chloro-2-methoxyphenyl)-2-((3-(2-hydroxyethoxy)-5-methoxyphenyl)amino)-1-(5-(trifluoromethyl)-1H-indol-3-yl)ethanone]								12			3500
COc1cc(NC(C(=O)c2c[nH]c3ccc(OC(F)(F)F)cc23)c2ccc(Cl)cc2OC)cc(OCCO)c1 (single isomer, unassigned) [Compound 13A, 2-(4-chloro-2-methoxyphenyl)-2-((3-(2-hydroxyethoxy)-5-methoxyphenyl)amino)-1-(5-(trifluoromethoxy)-1H-indol-3-yl)ethanone]	0.51	1200	2600	> 2500	> 2500	0.2		0.14	20	3.5	
COc1cc(NC(C(=O)c2c[nH]c3cc(F)c(OC(F)(F)F)cc23)c2ccc(Cl)cc2OC)cc(OCCO)c1 (single isomer, unassigned) [Compound 15A, 2-(4-chloro-2-methoxyphenyl)-1-(6-fluoro-5-(trifluoromethoxy)-1H-indol-3-yl)-2-((3-(2-hydroxyethoxy)-5-methoxyphenyl)amino)ethanone]								9.9			3800
